These are literature values, as cited in PubChem BioAssay AID1259409 (Chemical Carcinogenesis Research Information System (CCRIS), 2018).

For the data set, the system named is rodent chemically induced tumor inhibition, incidence and multiplicity. The experiment in a line: CCRIS tumor inhibitor studies. The source says: The CCRIS database contains chemical records with carcinogenicity, mutagenicity, tumor promotion, and tumor inhibition test results. It was developed by the National Cancer Institute (NCI). Data are derived from studies cited in primary journals, current awareness tools, NCI reports, and other sources. Test results have been reviewed by experts in carcinogenesis and mutagenesis.
CCRIS provides historical information from the years 1985 - 2011. It is no longer updated.
This is an archive assay for CCRIS tumor inhibitor studies.

In the case of `N#Cc1ccc(C(c2ccc(C#N)cc2)n2cncn2)cc1`, the “tumour outcome (control, treated, inhibition, significance)” value (Carcinogen: NONE, Dose [Inhibitor]: 0, 0.1 MG/KG BW/D FOR 104 WK (STUDY DURATION: 104 WK), Route [Inhibitor]: NOT SPECIFIED, Species: RAT, Strain/Sex: SPRAGUE-DAWLEY/FEMALE, Target Tissue: Type of Lesion: REPRODUCTIVE TRACT (DISTAL): BENIGN GRANULAR CELL TUMOR, Promoter: NONE) is on record as 7/60 (12%), 0/60 (0%), 100%, not calculated; the “tumour outcome (control, treated, inhibition, significance)” value (Carcinogen: NONE, Dose [Inhibitor]: 0, 1 MG/KG BW/D FOR 104 WK (STUDY DURATION: 104 WK), Route [Inhibitor]: NOT SPECIFIED, Species: RAT, Strain/Sex: SPRAGUE-DAWLEY/FEMALE, Target Tissue: Type of Lesion: REPRODUCTIVE TRACT (DISTAL): BENIGN GRANULAR CELL TUMOR, Promoter: NONE) was 7/60 (12%), 0/60 (0%), 100%, not calculated; the “tumour outcome (control, treated, inhibition, significance)” value (Carcinogen: NONE, Dose [Inhibitor]: 0, 10 MG/KG BW/D FOR 104 WK (STUDY DURATION: 104 WK), Route [Inhibitor]: NOT SPECIFIED, Species: RAT, Strain/Sex: SPRAGUE-DAWLEY/FEMALE, Target Tissue: Type of Lesion: REPRODUCTIVE TRACT (DISTAL): BENIGN GRANULAR CELL TUMOR, Promoter: NONE) was 7/60 (12%), 0/60 (0%), 100%, not calculated.

As for `S=C=NCCCc1ccccc1`, the “tumour outcome (control, treated, inhibition, significance)” value is recorded as 100%, 90%, 10%, not significant (Carcinogen: 4-(METHYLNITROSAMINO)-1-(3-PYRIDYL)-1-BUTANONE, 64091-91-4, Dose [Inhibitor]: 0, 0.2 UMOL 1/D FOR 4 D ADMINISTERED PRIOR TO CARCINOGEN TREATMENT (STUDY DURATION: 116 D), Route [Inhibitor]: GAVAGE, Species: MOUSE, Strain/Sex: STRAIN A, Target Tissue: Type of Lesion: LUNG: ADENOMA, Dose [Carcinogen]: 10 UMOL ONCE 2 HR AFTER FINAL DOSE OF INHIBITOR, Promoter: NONE USED); 100%, 75%, 25%, not significant (Carcinogen: 4-(METHYLNITROSAMINO)-1-(3-PYRIDYL)-1-BUTANONE, 64091-91-4, Dose [Inhibitor]: 0, 1 UMOL 1/D FOR 4 D ADMINISTERED PRIOR TO CARCINOGEN TREATMENT (STUDY DURATION: 116 D), Route [Inhibitor]: GAVAGE, Species: MOUSE, Strain/Sex: STRAIN A, Target Tissue: Type of Lesion: LUNG: ADENOMA, Dose [Carcinogen]: 10 UMOL ONCE 2 HR AFTER FINAL DOSE OF INHIBITOR, Promoter: NONE USED); 100%, 37%, 63%, p<0.001 (Carcinogen: 4-(METHYLNITROSAMINO)-1-(3-PYRIDYL)-1-BUTANONE, 64091-91-4, Dose [Inhibitor]: 0, 5 UMOL 1/D FOR 4 D ADMINISTERED PRIOR TO CARCINOGEN DOSE (STUDY DURATION: 116 D), Route [Inhibitor]: GAVAGE, Species: MOUSE, Strain/Sex: STRAIN-A, Target Tissue: Type of Lesion: LUNG: ADENOMA, Dose [Carcinogen]: 10 UMOL IN SALINE ADMINISTERED 2 HR POST LAST AGENT DOSE, Promoter: NONE USED); 100%, 37%, 63%, not calculated (Carcinogen: 4-(N-NITROSOMETHYLAMINO)-1-(3-PYRIDYL)-1-BUTANONE, 64091-91-4, Dose [Inhibitor]: 0, 5 UMOL/D FOR 4 CONSECUTIVE DAYS (STUDY DURATION: 16.5 WK), Route [Inhibitor]: GAVAGE, Species: MOUSE, Strain/Sex: STRAIN-A/FEMALE, Target Tissue: Type of Lesion: LUNG: ADENOMA, Dose [Carcinogen]: 10 UMOL ONCE 2 HR POST LAST AGENT DOSE, Promoter: NONE USED); 100%, 11%, 89%, p<0.05 (Carcinogen: 4-METHYLNITROSAMINO-1-(3-PYRIDYL)-1-BUTANONE,64091-91-4, Dose [Inhibitor]: 0, 5 UMOL 1/D FOR 4 D ADMINISTERED PRIOR TO CARCINOGEN TREATMENT (STUDY DURATION 116 D), Route [Inhibitor]: GAVAGE, Species: MOUSE, Strain/Sex: STRAIN A, Target Tissue: Type of Lesion: LUNG: ADENOMA, Dose [Carcinogen]: 10 UMOL ONCE 2 HR AFTER FINAL DOSE OF INHIBITOR, Promoter: NONE USED); 100%, 7%, 93%, p<0.05 (Carcinogen: N-NITROSOMETHYLBENZYLAMINE, 937-40-6, Dose [Inhibitor]: 0, 0.4 UMOL/G IN DIET FOR 25 WK BEGINNING 2 WK PRIOR TO CARCINOGEN TREATMENT (STUDY DURATION: 25 WK), Route [Inhibitor]: ORAL, Species: RAT, Strain/Sex: F344/MALE, Target Tissue: Type of Lesion: ESOPHAGUS: TUMOR, Dose [Carcinogen]: 0.5 MG/KG BW IN 20% DMSO 1/WK FOR 15 WK, Promoter: NONE USED). Further, the “tumour outcome (control, treated, inhibition, significance)” value reads like this: (Carcinogen: N-NITROSOMETHYLBENZYLAMINE, 937-40-6, Dose [Inhibitor]: 0, 1 UMOL/G IN DIET FOR 25 WK BEGINNING 2 WK PRIOR TO CARCINOGEN TREATMENT (STUDY DURATION: 25 WK), Route [Inhibitor]: ORAL, Species: RAT, Strain/Sex: F344/MALE, Target Tissue: Type of Lesion: ESOPHAGUS: TUMOR, Dose [Carcinogen]: 0.5 MG/KG BW IN 20% DMSO 1/WK FOR 15 WK, Promoter: NONE USED) 100%, 7%, 93%, p<0.05; (Carcinogen: N-NITROSOMETHYLBENZYLAMINE, 937-40-6, Dose [Inhibitor]: 0, 2.5 UMOL/G IN DIET FOR 25 WK BEGINNING 2 WK PRIOR TO CARCINOGEN TREATMENT (STUDY DURATION: 25 WK), Route [Inhibitor]: ORAL, Species: RAT, Strain/Sex: F344/MALE, Target Tissue: Type of Lesion: ESOPHAGUS: TUMOR, Dose [Carcinogen]: 0.5 MG/KG BW IN 20% DMSO 1/WK FOR 15 WK, Promoter: NONE USED) 100%, 0%, 100%, p<0.05.

As to `Cc1c[nH]c(=O)[nH]c1=O`, the “tumour outcome (control, treated, inhibition, significance)” value is reported as 11/11 (100%), 6/11 (55%), 45%, not calculated (Carcinogen: 7,12-DIMETHYLBENZ[A]ANTHRACENE, 57-97-6, Dose [Inhibitor]: 1% IN 20% PROTEIN DIET AND 0.5% IN DRINKING WATER (STUDY DURATION: 150 D), Route [Inhibitor]: ORAL, Species: RAT, Strain/Sex: STRAIN-CB/FEMALE, Target Tissue: Type of Lesion: MAMMARY GLAND: TUMOR, Dose [Carcinogen]: 15 MG IN 1 ML ARACHIS OIL TWICE 14 D APART, Promoter: NONE USED); 18/18 (100%), 16/20 (80%), 20%, not calculated (Carcinogen: 7,12-DIMETHYLBENZ[A]ANTHRACENE, 57-97-6, Dose [Inhibitor]: 1.5% IN 20% PROTEIN DIET (STUDY DURATION: 100 D), Route [Inhibitor]: ORAL, Species: RAT, Strain/Sex: STRAIN-CB/FEMALE, Target Tissue: Type of Lesion: MAMMARY GLAND: TUMOR, Dose [Carcinogen]: 15 MG IN 1 ML ARACHIS OIL THREE DOSES GIVEN 1/2 WK, Promoter: NONE USED); 48%, 17%, 65%, p 0.02 (Carcinogen: NONE USED, Dose [Inhibitor]: 0.4% IN DRINKING WATER, STARTING AT 7-9 WK OF AGE AND CONTINUING FOR DURATION OF STUDY (STUDY DURATION: 10-12 MO), Route [Inhibitor]: ORAL, Species: MOUSE, Strain/Sex: STRAIN-A/MALE, FEMALE, Target Tissue: Type of Lesion: LUNG: ADENOMA, Promoter: NONE USED).

`CSC[C@H](N)C(=O)O`: the “tumour outcome (control, treated, inhibition, significance)” value is given as 22/25 (88%), 19/25 (76%), 14%, not significant (Carcinogen: 7,12-DIMETHYLBENZ[A]ANTHRACENE, 57-97-6, Dose [Inhibitor]: 0, 0.005 MOL/KG DIET BEGINNING 2 WK PRIOR TO CARCINOGEN AND CONTINUED FOR STUDY DURATION (STUDY DURATION: 25 WK), Route [Inhibitor]: ORAL, Species: RAT, Strain/Sex: CD-1/FEMALE, Target Tissue: Type of Lesion: MAMMARY GLAND: ADENOCARCINOMA, Dose [Carcinogen]: 10 MG ONCE, Promoter: NONE USED); 23/30 (77%), 14/30 (47%), 39%, p<0.05 (Carcinogen: 7,12-DIMETHYLBENZ[A]ANTHRACENE, 57-97-6, Dose [Inhibitor]: 0, 0.015 MOL/KG DIET BEGINNING 1 WK POST CARCINOGEN AND CONTINUED FOR STUDY DURATION (STUDY DURATION: 25 WK), Route [Inhibitor]: ORAL, Species: RAT, Strain/Sex: CD-1/FEMALE, Target Tissue: Type of Lesion: MAMMARY GLAND: ADENOCARCINOMA, Dose [Carcinogen]: 10 MG ONCE, Promoter: NONE USED); 23/30 (77%), 21/30 (70%), 9%, not significant (Carcinogen: 7,12-DIMETHYLBENZ[A]ANTHRACENE, 57-97-6, Dose [Inhibitor]: 0, 0.015 MOL/KG DIET BEGINNING 2 WK PRIOR TO CARCINOGEN AND CONTINUED 1 WK POST CARCINOGEN (STUDY DURATION: 25 WK), Route [Inhibitor]: ORAL, Species: RAT, Strain/Sex: CD-1/FEMALE, Target Tissue: Type of Lesion: MAMMARY GLAND: ADENOCARCINOMA, Dose [Carcinogen]: 10 MG ONCE, Promoter: NONE USED); 22/25 (88%), 13/25 (52%), 41%, p<0.05 (Carcinogen: 7,12-DIMETHYLBENZ[A]ANTHRACENE, 57-97-6, Dose [Inhibitor]: 0, 0.015 MOL/KG DIET BEGINNING 2 WK PRIOR TO CARCINOGEN AND CONTINUED FOR STUDY DURATION (STUDY DURATION: 25 WK), Route [Inhibitor]: ORAL, Species: RAT, Strain/Sex: CD-1/FEMALE, Target Tissue: Type of Lesion: MAMMARY GLAND: ADENOCARCINOMA, Dose [Carcinogen]: 10 MG ONCE, Promoter: NONE USED).

As for `S=C=Nc1cc2c3ccccc3ccc2c2ccccc12`, the outcome (Carcinogen: BENZO[A]PYRENE, 50-32-8, Dose [Inhibitor]: 0, 5 UMOL IN ACETONE 4 HR PRIOR TO CARCINOGEN DOSE (STUDY DURATION: 20 WK), Route [Inhibitor]: DERMAL, Species: MOUSE, Strain/Sex: STRAIN-A/FEMALE, Target Tissue: Type of Lesion: SKIN: TUMOR, Dose [Carcinogen]: 0.1 UMOL IN ACETONE ONCE, Promoter: 12-O-TETRADECANOYLPHORBOL-13-ACETATE, 16561-29-8) is listed as 85%, 74%, 13%, not significant at 15 wk; 95%, 80%, 16%, not significant at 20 wk.
